Results reported in the NIST ThermoML archive (doi:10.1016/j.jct.2009.06.014).
Numbers after ± are expanded uncertainties.

What was measured:
[1] = wn = mass fraction of the nth substance listed; settings: 101 kPa, Liquid, Vibrating tube method
[2] = xn = mol fraction of the nth substance listed; settings: 101 kPa, Liquid, Vibrating tube method

CCCC[N+](CCCC)(CCCC)CCCC.[Br-] [tetrabutylammonium bromide] + O
mass density [kg/m3], [1]
Settings	w1 = 0.0697	w1 = 0.0999	w1 = 0.15	w1 = 0.1996	w1 = 0.25	w1 = 0.2998	w1 = 0.3499	w1 = 0.4002	w1 = 0.4498	w1 = 0.5
293.15 K	1003.85 ± 0.22	1006.63 ± 0.23	1011.35 ± 0.23	1017.09 ± 0.23	1021.73 ± 0.25	–	1030.98 ± 0.23	1036.25 ± 0.25	1041.41 ± 0.24	1044.73 ± 0.24
298.15 K	1002.43 ± 0.22	1005.08 ± 0.22	1009.55 ± 0.23	1015.11 ± 0.23	1019.26 ± 0.24	1027.44 ± 0.23	1027.91 ± 0.22	1032.9 ± 0.24	1037.83 ± 0.24	1041.06 ± 0.24
303.15 K	1000.8 ± 0.22	1003.31 ± 0.22	1007.54 ± 0.23	1012.76 ± 0.23	1016.66 ± 0.24	1024.31 ± 0.23	1024.77 ± 0.22	1029.49 ± 0.24	1034.23 ± 0.24	1037.36 ± 0.24
308.15 K	998.95 ± 0.22	1001.34 ± 0.22	1005.34 ± 0.23	1010.24 ± 0.23	1013.92 ± 0.24	1021.1 ± 0.23	1021.55 ± 0.22	1026.04 ± 0.24	1030.59 ± 0.24	1033.62 ± 0.24
313.15 K	996.91 ± 0.22	999.19 ± 0.22	1002.97 ± 0.22	1007.59 ± 0.22	1011.06 ± 0.23	1017.82 ± 0.23	1018.26 ± 0.22	1022.53 ± 0.24	1026.92 ± 0.24	1029.85 ± 0.24
318.15 K	994.7 ± 0.22	996.86 ± 0.22	1000.45 ± 0.22	1004.8 ± 0.22	1008.08 ± 0.23	1014.47 ± 0.22	1014.9 ± 0.22	1018.98 ± 0.23	1023.21 ± 0.23	1026.05 ± 0.24
323.15 K	992.32 ± 0.22	994.38 ± 0.22	997.78 ± 0.22	1001.88 ± 0.22	1005 ± 0.23	1011.05 ± 0.22	1011.47 ± 0.22	1015.38 ± 0.23	1019.46 ± 0.23	1022.22 ± 0.23
328.15 K	989.78 ± 0.22	991.74 ± 0.22	994.96 ± 0.22	998.84 ± 0.22	1001.81 ± 0.23	1007.56 ± 0.22	1007.97 ± 0.22	1011.71 ± 0.23	1015.67 ± 0.23	1018.35 ± 0.23
333.15 K	987.09 ± 0.22	988.96 ± 0.22	992 ± 0.22	995.69 ± 0.22	998.5 ± 0.22	1004 ± 0.22	1004.4 ± 0.22	1008 ± 0.23	1011.83 ± 0.23	1014.45 ± 0.23

C1CCOC1 [tetrahydrofuran] + O
mass density [kg/m3], [2]
Settings	293.15 K	298.15 K	303.15 K	308.15 K	313.15 K	318.15 K	323.15 K	328.15 K	333.15 K
x2 = 0	889.47 ± 0.23	885.04 ± 0.23	880.76 ± 0.23	876.63 ± 0.23	872.62 ± 0.23	868.72 ± 0.23	864.91 ± 0.23	861.19 ± 0.23	855.57 ± 0.23
x2 = 0.307	909.02 ± 0.24	904.73 ± 0.23	900.6 ± 0.23	896.6 ± 0.23	892.72 ± 0.23	888.93 ± 0.23	885.23 ± 0.24	881.59 ± 0.24	878.02 ± 0.24
x2 = 0.5048	927.43 ± 0.24	923.37 ± 0.24	919.45 ± 0.24	915.67 ± 0.24	912.03 ± 0.24	908.48 ± 0.24	905.02 ± 0.24	901.65 ± 0.25	898.3 ± 0.25
x2 = 0.6429	944.68 ± 0.26	940.84 ± 0.26	937.15 ± 0.26	933.61 ± 0.26	930.19 ± 0.26	926.87 ± 0.26	923.65 ± 0.27	920.5 ± 0.27	917.43 ± 0.27
x2 = 0.8027	968.99 ± 0.26	965.85 ± 0.26	962.77 ± 0.27	959.82 ± 0.27	956.98 ± 0.27	954.25 ± 0.28	951.59 ± 0.28	949.01 ± 0.28	946.48 ± 0.29
x2 = 0.8555	979.39 ± 0.28	976.67 ± 0.29	974.08 ± 0.3	971.62 ± 0.31	969.26 ± 0.32	966.98 ± 0.33	964.79 ± 0.33	962.66 ± 0.34	960.59 ± 0.35
x2 = 0.9025	987.96 ± 0.26	986.24 ± 0.27	984.38 ± 0.28	982.6 ± 0.29	980.91 ± 0.3	979.36 ± 0.31	977.79 ± 0.33	976.28 ± 0.34	974.8 ± 0.35
x2 = 0.9402	992.74 ± 0.23	991.5 ± 0.24	990.32 ± 0.26	989.18 ± 0.27	988.11 ± 0.28	987.04 ± 0.29	986 ± 0.3	985.02 ± 0.31	983.98 ± 0.32
x2 = 0.9719	995.94 ± 0.22	995.45 ± 0.22	994.98 ± 0.22	994.52 ± 0.22	994.07 ± 0.22	993.63 ± 0.21	993.19 ± 0.21	992.76 ± 0.2	992.33 ± 0.21
